Measurements from patent publication US7932270B2 (Cytokinetics, Inc., priority 2006, dated 2011).

Target: T1, chicken gizzard smooth muscle myosin subfragment-1 chemically crosslinked to cardiac or skeletal actin (Gallus gallus, UniProt P10587)
T1 construct: chicken gizzard smooth muscle myosin subfragment-1; from tissue; host or cells: chicken gizzard
Experiment: Smooth muscle myosin ATPase dose response assay (pyruvate kinase/horseradish peroxidase/pyruvate oxidase-coupled, amplex red fluorescence)
Type: biochemical
Conditions: read-out: IC50 Arithmetic Mean
Method in brief: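 EDC/NHS-crosslinked S1–actin, amount set per prep by rate titration. Buffer: 12 mM K-PIPES pH 7.00 (22° C), 100 mM KCl, 2 mM MgCl2, 0.15 mM ATP, 0.1 mM PEP, 2 mM KPi, 0.1 mM amplex red. Read ex 480/em 615 nm; IC50 = midpoint, 4-param Hill fit.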

T1 sequence (P02607 2-151): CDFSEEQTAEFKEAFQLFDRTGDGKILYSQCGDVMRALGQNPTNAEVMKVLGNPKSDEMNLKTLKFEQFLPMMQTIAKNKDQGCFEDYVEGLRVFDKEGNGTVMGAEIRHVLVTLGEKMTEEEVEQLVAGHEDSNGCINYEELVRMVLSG
T1 sequence (P10587 84-789): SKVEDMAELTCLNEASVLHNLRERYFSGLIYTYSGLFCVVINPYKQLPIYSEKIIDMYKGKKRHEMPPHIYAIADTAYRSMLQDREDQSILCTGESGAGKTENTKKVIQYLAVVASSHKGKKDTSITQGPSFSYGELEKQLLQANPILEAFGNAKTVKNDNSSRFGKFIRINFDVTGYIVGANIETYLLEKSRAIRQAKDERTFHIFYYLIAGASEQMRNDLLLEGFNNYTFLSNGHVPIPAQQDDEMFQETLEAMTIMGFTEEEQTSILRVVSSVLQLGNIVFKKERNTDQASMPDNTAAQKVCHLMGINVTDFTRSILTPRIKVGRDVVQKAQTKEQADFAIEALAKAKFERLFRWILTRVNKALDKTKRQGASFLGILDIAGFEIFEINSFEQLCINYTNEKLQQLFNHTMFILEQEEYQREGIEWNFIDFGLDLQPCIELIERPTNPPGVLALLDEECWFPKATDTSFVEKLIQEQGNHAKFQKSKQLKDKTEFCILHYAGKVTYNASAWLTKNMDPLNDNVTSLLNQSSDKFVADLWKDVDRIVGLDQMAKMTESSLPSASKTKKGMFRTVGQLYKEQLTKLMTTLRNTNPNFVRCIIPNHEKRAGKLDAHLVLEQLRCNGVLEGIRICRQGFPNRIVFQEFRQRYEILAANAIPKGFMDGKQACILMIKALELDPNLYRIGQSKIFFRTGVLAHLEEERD

Row | IC50 [nM] | Structure (SMILES)
1 | 273 | N#Cc1ccccc1-c1ccc(C(=O)NCC2CCCCC(=O)N2CCCN)c(NCCc2cccc(F)c2)n1 (centres unmarked) [N-{[1-(3-aminopropyl)-7-oxoazaperhydroepin-2-yl]methyl}(6-(2-cyanophenyl)-2-{[2-(3-fluorophenyl)ethyl]amino}(3-pyridyl))carboxamide]
2 | 710 | C[C@H](CNC(=O)c1ccc(-c2ccccc2C#N)nc1NCCc1cccc(F)c1)N(C)C(=O)CCCN
3 | 294 | O=C(NCc1cccnc1)c1ccc(-c2ccccc2)nc1NCCc1ccco1 [{2-[(2-(2-furyl)ethyl)amino]-6-phenyl(3-pyridyl)}-N-(3-pyridylmethyl)carboxamide]
4 | 65 | N#Cc1ccccc1-c1ccc(C(=O)NCc2ccn(CCCN)n2)c(NCCc2cccc(F)c2)n1 [N-{[1-(3-aminopropyl)pyrazol-3-yl]methyl}(6-(2-cyanophenyl)-2-{[2-(3-fluorophenyl)ethyl]amino}(3-pyridyl))carboxamide]
5 | 619 | COC(=O)[C@@H](N)CNC(=O)c1ccc(-c2ccccc2C#N)nc1NCCc1cccc(F)c1 [methyl (2S)-2-amino-3-[(6-(2-cyanophenyl)-2-{[2-(3-fluorophenyl)ethyl]amino}(3-pyridyl))carbonylamino]propanoate]
6 | 88 | N#Cc1ccccc1-c1ccc(C(=O)NC[C@H]2CCN2C(=O)[C@@H](N)CO)c(NCCc2cccc(F)c2)n1 [N-{[(2R)-1-((2S)-2-amino-3-hydroxypropanoyl)azetidin-2-yl]methyl}(6-(2-cyanophenyl)-2-{[2-(3-fluorophenyl)ethyl]amino}(3-pyridyl))carboxamide]
7 | 1480 | O=Cc1sccc1-c1ccc(C(=O)NCc2cccnc2)c(NCCc2cccc(F)c2)n1 [(2-{[2-(3-fluorophenyl)ethyl]amino}-6-(2-formyl(3-thienyl))(3-pyridyl))-N-(3-pyridylmethyl)carboxamide]
8 | 2790 | CCc1ccc(-c2ccc(C(=O)NCc3cccnc3)c(NCCc3ccccn3)n2)cc1 [{6-(4-ethylphenyl)-2-[(2-(2-pyridyl)ethyl)amino](3-pyridyl)}-N-(3-pyridylmethyl)carboxamide]
9 | 4950 | N#Cc1ccccc1-c1ccc(C(=O)NCCCN2C(=O)CC[C@@H]2CN)c(NCCc2cccc(F)c2)n1 [N-{3-[(5R)-5-(aminomethyl)-2-oxopyrrolidinyl]propyl}(6-(2-cyanophenyl)-2-{[2-(3-fluorophenyl)ethyl]amino}(3-pyridyl))carboxamide]
10 | 51.7 | N#Cc1ccccc1-c1ccc(C(=O)NC[C@H]2CCC(=O)N2CCCCN)c(NCCc2cccc(F)c2)n1 [N-{[(2R)-1-(4-aminobutyl)-5-oxopyrrolidin-2-yl]methyl}(6-(2-cyanophenyl)-2-{[2-(3-fluorophenyl)ethyl]amino}(3-pyridyl))carboxamide]
11 | 47 | N#Cc1ccccc1-c1ccc(C(=O)NC[C@H]2CCCN2C(=O)CCN)c(NCCc2cccc(F)c2)n1 [N-{[(2R)-1-(3-aminopropanoyl)pyrrolidin-2-yl]methyl}(6-(2-cyanophenyl)-2-{[2-(3-fluorophenyl)ethyl]amino}(3-pyridyl))carboxamide]
12 | 9760 | N#Cc1ccccc1-c1ccc(C(=O)NC[C@H](N)C(=O)O)c(NCCc2cccc(F)c2)n1 [(2S)-2-amino-3-[(6-(2-cyanophenyl)-2-{[2-(3-fluorophenyl)ethyl]amino}(3-pyridyl))carbonylamino]propanoic acid]
13 | 2690 | Cn1cc(-c2ccc(C(=O)NCc3ccn(CCCN)n3)c(NCCc3cccc(F)c3)n2)cn1 [N-{[1-(3-aminopropyl)pyrazol-3-yl]methyl}(2-{[2-(3-fluorophenyl)ethyl]amino}-6-(1-methylpyrazol-4-yl)(3-pyridyl))carboxamide]
14 | 4320 | N#Cc1ccccc1-c1ccc(C(=O)NCCNC(=O)CCN)c(NCCc2cccc(F)c2)n1 [3-amino-N-{2-[(6-(2-cyanophenyl)-2-{[2-(3-fluorophenyl)ethyl]amino}(3-pyridyl))carbonylamino]ethyl}propanamide]
15 | 3500 | N#Cc1ccccc1-c1ccc(C(=O)NCC2CCCN2CCCN)c(NCCc2cccc(F)c2)n1 (centres unmarked)
16 | 108 | NCC(=O)N1CCC[C@@H]1CNC(=O)c1cc(F)c(-c2cc[nH]n2)nc1NCCc1cccc(F)c1 [N-{[(2R)-1-(2-aminoacetyl)pyrrolidin-2-yl]methyl}(5-fluoro-2-{[2-(3-fluorophenyl)ethyl]amino}-6-pyrazol-3-yl(3-pyridyl))carboxamide]
17 | 394 | O=C(NC[C@H]1CCCN1)c1cc(F)c(-c2cn[nH]c2)nc1NCCc1cccc(F)c1 [N-[((2R)pyrrolidin-2-yl)methyl](5-fluoro-2-{[2-(3-fluorophenyl)ethyl]amino}-6-pyrazol-4-yl(3-pyridyl))carboxamide]

Row | IC50 [nM] | Structure (SMILES)
18 | 23 | Cn1cc(-c2nc(NCCc3cccc(F)c3)c(C(=O)NCc3cccnc3)cc2Br)cn1 [(5-bromo-2-{[2-(3-fluorophenyl)ethyl]amino}-6-(1-methylpyrazol-4-yl)(3-pyridyl))-N-(3-pyridylmethyl)carboxamide]
19 | 2500 | N#Cc1ccccc1-c1ccc(C(=O)NCC2CCCCCN2)c(NCCc2cccc(F)c2)n1 (centres unmarked) [N-(azaperhydroepin-2-ylmethyl)(6-(2-cyanophenyl)-2-{[2-(3-fluorophenyl)ethyl]amino}(3-pyridyl))carboxamide]
20 | 7070 | C[C@H](CNC(=O)c1ccc(-c2ccccc2C#N)nc1NCCc1cccc(F)c1)N(C)S(C)(=O)=O [N-{(2R)-2-[methyl(methylsulfonyl)amino]propyl}(6-(2-cyanophenyl)-2-{[2-(3-fluorophenyl)ethyl]amino}(3-pyridyl))carboxamide]
21 | 26 | N#Cc1ccccc1-c1ccc(C(=O)NCc2cnccn2)c(NCCc2cccc(F)c2)n1 [(6-(2-cyanophenyl)-2-{[2-(3-fluorophenyl)ethyl]amino}(3-pyridyl))-N-(pyrazin-2-ylmethyl)carboxamide]
22 | 88 | O=C(NCc1cccnc1)c1cc2c(nc1NCCc1cccc(F)c1)-c1ccccc1C2=O [(2-{[2-(3-fluorophenyl)ethyl]amino}-5-oxoindeno[3,2-b]pyridin-3-yl)-N-(3-pyridylmethyl)carboxamide]
23 | 758 | N#Cc1ccccc1-c1ccc(C(=O)NCC2CCCN2CCN)c(NCCc2cccc(F)c2)n1 (centres unmarked) [N-{[1-(2-aminoethyl)pyrrolidin-2-yl]methyl}(6-(2-cyanophenyl)-2-{[2-(3-fluorophenyl)ethyl]amino}(3-pyridyl))carboxamide]
24 | 669 | N#Cc1ccccc1-c1ccc(C(=O)NC[C@H](N)C(N)=O)c(NCCc2cccc(F)c2)n1 [N-((2S)-2-amino-2-carbamoylethyl)(6-(2-cyanophenyl)-2-{[2-(3-fluorophenyl)ethyl]amino}(3-pyridyl))carboxamide]
25 | 1570 | O=C(NCc1cccnc1)c1ccc(-c2ccsc2CO)nc1NCCc1cccc(F)c1 [(2-{[2-(3-fluorophenyl)ethyl]amino}-6-[2-(hydroxymethyl)(3-thienyl)](3-pyridyl))-N-(3-pyridylmethyl)carboxamide]
26 | 972 | O=C(NCc1cccnc1)c1ccc(-c2cnn(CCO)c2)nc1NCCc1cccc(F)c1 [(2-{[2-(3-fluorophenyl)ethyl]amino}-6-[1-(2-hydroxyethyl)pyrazol-4-yl](3-pyridyl))-N-(3-pyridylmethyl)carboxamide]
27 | 22100 | O=C(NCc1cccnc1)c1ccc(-c2ccccc2)nc1NCCN1CCCCC1=O [(2-{[2-(2-oxopiperidyl)ethyl]amino}-6-phenyl(3-pyridyl))-N-(3-pyridylmethyl)carboxamide]
28 | 105 | C[C@@H](CNC(=O)CO)CNC(=O)c1cc(F)c(-c2cnn(C)c2)nc1NCCc1cccc(F)c1 [N-{(2R)-3-[(5-fluoro-2-{[2-(3-fluorophenyl)ethyl]amino}-6-(1-methylpyrazol-4-yl)(3-pyridyl))carbonylamino]-2-methylpropyl}-2-hydroxyacetamide]
29 | 351 | Cn1cc(-c2ccc(C(=O)NC[C@H]3CCCN3C(=O)CCCN)c(NCCc3cccc(F)c3)n2)cn1 [N-{[(2R)-1-(4-aminobutanoyl)pyrrolidin-2-yl]methyl}(2-{[2-(3-fluorophenyl)ethyl]amino}-6-(1-methylpyrazol-4-yl)(3-pyridyl))carboxamide]
30 | 2050 | C[N+]1(C)CCC[C@@H]1CNC(=O)c1ccc(-c2ccccc2C#N)nc1NCCc1cccc(F)c1
31 | 13200 | NCCCN1C(=O)CC[C@@H]1CNC(=O)c1ccc(-c2ccccc2C(N)=O)nc1NCCc1cccc(F)c1 [2-[5-(N-{[(2R)-1-(3-aminopropyl)-5-oxopyrrolidin-2-yl]methyl}carbamoyl)-6-{[2-(3-fluorophenyl)ethyl]amino}-2-pyridyl]benzamide]
32 | 6 | N#Cc1ccccc1-c1nc(NCCc2cccc(F)c2)c(C(=O)NCc2cccnc2CN)cc1F [N-{[2-(aminomethyl)(3-pyridyl)]methyl}(6-(2-cyanophenyl)-5-fluoro-2-{[2-(3-fluorophenyl)ethyl]amino}(3-pyridyl))carboxamide]
33 | 414 | O=C(NCc1cccnc1)c1ccc(-c2ccsc2)nc1NCCc1ccccn1 [{2-[(2-(2-pyridyl)ethyl)amino]-6-(3-thienyl)(3-pyridyl)}-N-(3-pyridylmethyl)carboxamide]

Row | Structure (SMILES) | IC50 [nM]
34 | C[C@H](NC(=O)OC(C)(C)C)C(=O)N1CCC[C@@H]1CNC(=O)c1ccc(-c2ccccc2C#N)nc1NCCc1cccc(F)c1 [N-[2-((2R)-2-{[(6-(2-cyanophenyl)-2-{[2-(3-fluorophenyl)ethyl]amino}(3-pyridyl))carbonylamino]methyl}pyrrolidinyl)(1S)-1-methyl-2-oxoethyl](tert-butoxy)carboxamide] | 3260
35 | CC(C)(C)OC(=O)NCCCN1C(=O)CC[C@@H]1CNC(=O)c1ccc(-c2ccccc2C#N)nc1NCCc1cccc(F)c1 [N-[((2R)-1-{3-[(tert-butoxy)carbonylamino]propyl}-5-oxopyrrolidin-2-yl)methyl](6-(2-cyanophenyl)-2-{[2-(3-fluorophenyl)ethyl]amino}(3-pyridyl))carboxamide] | 518
